Test [1] concerns the target T1, Notch transcriptional activation complex (CSL, Notch1, MAML1 on DNA) (Homo sapiens, UniProt P46531+Q06330).
T1 construct: the intracellular domain of Notch (“NICD”); made in house; host or cells: SF21 insect cells (baculovirus)
As to the kind of experiment: Notch complex assembly assay (ALPHASCREEN). In kind it is biochemical. The source says: An in vitro assay was developed to monitor the assembly of the Notch transcriptional complex (“NTC”) on DNA. The NTC, which includes the Notch, Mastermind (“MAML1”), and CSL proteins, binds to a specific DNA sequence in a CSL-dependent manner. For the assay, baculovirus produced CSL, Notch, and MAML1 were mixed together with a biotinylated DNA oligomer containing the CSL target sequence. Assembly of the NTC on DNA was then monitored with the proximity-based ALPHASCREEN (Perkin Elmer) using streptavidin and protein A beads (FIGS. 1A and 1B). A signal results when MAML1 is recruited to CSL bound DNA.
All recombinant proteins were expressed using baculovirus expression vectors in SF21 cells and purified. Unless otherwise stated, all assays contained 125 fmol of double stranded oligonucleotide, CSL, Notch1 and MAML1 proteins. Reactions were carried out in Tris-buffered saline with 0.1% Tween (“TBS-T”) buffer containing 0.2% bovine serum albumin (“BSA”) and 100 ug/mL salmon sperm DNA. Briefly, the Notch complex was assembled on a biotinylated double stranded (“DS”) oligonucleotide harboring one CSL binding site (5′-[…]-3′). Complex assembly was quantitated using ALPHASCREEN technology (Perkin Elmer). Proteins in the complexes were detected using specific antibodies to either MAML1 (Cell signaling, D3K7B), Notch1 (Abcam, 52627) or CSL (anti-His, Abcam 18184). Streptavidin conjugated acceptor beads (Perkin Elmer, 6760002) were used to bind the DS oligonucleotide, and Protein-A conjugated donor beads (Perkin Elmer, 6760137) were used to detect antibody-coated proteins. For screening compounds, Notch transcriptional activation complex (“NTC”) components were added to wells that already contained the inhibitor to be assayed and allowed to incubate for 30 minutes. The ALPHASCREEN plate (Perkin Elmer, 6008350) was then read on an Envision Plate reader (Perkin Elmer) as specified by the manufacturer.
Determination of Equilibrium Dissociation Constants (KD) and Half Maximal Inhibitory Concentrations (IC50)
Background: In Alpha technology, singlet oxygen from a donor bead excites a nearby acceptor bead.

Test [2] has as its target T2, NICD1 (Homo sapiens, UniProt P46531).
T2 construct: the intracellular domain of Notch (“NICD”)
The test can be described thus: Surface plasmon resonance binding to immobilized NICD. To be noted: SPR, equilibrium response fitted to 1:1 binding model. The procedure:
(§1) The inhibitors described herein were subjected to surface plasmon resonance (“SPR”) to determine their binding constants to the NICD and CSL components of the NTC. In particular, the target protein (NICD1) was immobilized on the dextran surface of the SPR sensor chip. Through a microflow system, a solution with the inhibitor was injected over the immobilized protein layer. The inhibitor bound to the immobilized protein, which led to an increase in SPR signal, indicating association of the ligand to the target protein. After 45 seconds, buffer solution was injected on the microfluidics that dissociated the bound complex between the ligand and the inhibitor. As the inhibitor dissociated from the ligand, a decrease in SPR signal was observed. The equilibrium dissociation constant KD was determined by plotting the equilibrium response (Req) as a function of the concentration of the ligand, and fitting the data to a 1:1 binding model. The results are listed in […].
A general note: Surface plasmon resonance follows binding to a sensor surface in real time, without labels.

For test [3], the target named is CSL (Homo sapiens, UniProt Q06330). The test can be described thus: Surface plasmon resonance binding to CSL. Particulars: SPR, equilibrium response fitted to 1:1 binding model. On the procedure:
as §1

Test [4] relates to Notch target gene transcription. As to the kind of experiment: RT-qPCR of Notch target genes in cancer cell lines. In kind it is cell-based, human. On the procedure:
(§2) The effect of inhibitor treatment on Notch-target gene transcription also was investigated (FIGS. 2C and 2D). […] As proof of specificity, transcription of the housekeeping gene, HPRT, was unaltered in treated cells. To test the effects of Notch inhibition on proliferation, a colony formation assay was performed.
(§3) To extend the analysis of tumor cell growth inhibition, several commonly used cancer cell lines were selected to test for sensitivity to Inhibitor No. 1-134-83 (FIGS. 3A and 3B). […] In this analysis, sensitivity to DAPT is taken to indicate specific inhibition of Notch activity. […] Cells that are refractory to DAPT were equally resistant to Inhibitor No. 1-134-83.
RT-PCR analysis was performed using TaqMan probes according to manufacturer's instructions. In particular, 80 ng of RNA equivalent was used per reaction. Gene expression was normalized to the TATA-binding protein (“TBP”) gene. As a control, hypoxanthine phosphoribosyltransferase 1 (“HPRT”) gene expression was also monitored.
Background: In qPCR the cycle at which signal appears reflects the starting amount.

The test system of test [5] is esophageal adenocarcinoma PDX tumors. The test can be described thus: Esophageal adenocarcinoma patient-derived xenograft (PDX). Particulars: NSG mice, two PDX models, daily IP, 1-134-83 15 mg/kg, DAPT 20 mg/kg. In kind it is in vivo, mouse. On the procedure:
The effect of the inhibitors of the disclosure on the growth of an established tumor also was investigated using two independent esophageal adenocarcinoma patient-derived xenograft (“PDX”) models. Tumors were established in NSG mice to the size of 250 mm^3 prior to the initiation of treatment. Mice were dosed daily via intraperitoneal (“IP”) injection with either Inhibitor No. 1-134-83 (15 mg/kg) or DAPT (20 mg/kg), and compared to DMSO vehicle control. […] Following 24 days of treatment, tumors were harvested and Notch-target gene transcription was evaluated. […] (FIG. 4) Six-week-old NOD-SCID gamma (“NSG”) mice were purchased from Jackson Laboratories and CD-1 Nude mice were purchased from Charles River Laboratories. For the cell line based xenografts assay, 5×10^6 OE19 cells in 200 μl serum-free culture medium were injected subcutaneously per mouse. The mice in the treatment group were injected with 15 mg/kg of Inhibitor No. 1-134-83 daily, and the mice in the control group were injected with the same volume of vehicle (DMSO). Subcutaneous tumor growth was measured once every 4 days using calipers along with body weight. The experiment was discontinued on day 28. PDX cancer models were established, as described in Zhang et al, Establishment of Patient-Derived Xenograft (PDX) Models of Human Breast Cancer, Current Protocols in Mouse Biology, 3:21-29 (2013), in NSG mice. Briefly, 10 mm^3 pieces of primary EAC29 PDX tumor were transplanted subcutaneously into the flanks of NSG mice using a 13G telescopic needle. When the tumors reached 200 mm^3, the mice were split into two uniform groups for treatment. Compound 1-134-83 (15 mg/kg) and vehicle were administered daily by inraperitoneal (“IP”) injection for 24 days. Tumor growth was monitored every 4 days and tumor volume was measured by the formula: Volume=(S×S×L)/2, where S and L are the short and long dimensions. The xenograft tumors were harvested, weighed and samples were subjected to histological examination and by qPCR.

The subject of test [6] is cancer cell lines (OE33, 786-0 and panel). As to the kind of experiment: Colony formation assay. Particulars: 7 days. In kind it is cell-based, human. The procedure: as §2, §3
Cells were plated into a 6 well plate at a density of 2000 cells/cm^2. Inhibitor treatment commenced 24 hours post seeding, and the media containing inhibitor was changed every 48 hours thereafter. After 168 hours, cells were fixed with ice cold methanol for 10 minutes, stained for 1 hour with crystal violet, de-stained with water, and allowed to dry.

For test [7], the system named is NICD in OE33 and 786-0 cells. As to the kind of experiment: Western analysis of NICD levels. Particulars: OE33 and 786-0 cell lysates. In kind it is cell-based, human. The procedure: (§4) The effect of inhibitor treatment on the assembly of the NTC in cells was investigated.
Protein analysis was carried out using conventional SDS-PAGE and transfer techniques. Blots were probed with the indicated antibody (“Ab”), using standard conditions, and detected using enhanced chemiluminescence (“ECL”). The following Ab were used: anti-Notch1 (ab52627, abcam), anti-Notch1^val1744 (4147S, Cell Signaling Technology) and anti-GAPDH (ab9483, Abcam).

Test [8] has as its system MAML1 and Notch1 occupancy on HES1 promoter in OE33 and 786-0 cells. The test can be described thus: Chromatin immunoprecipitation (ChIP) on the HES1 locus. In kind it is cell-based, human. Particulars: 24 hours. The procedure: as §4
Cells (8×10^6 OE33 cells or 10×10^6 786-0 cells) were plated onto a 15 cm tissue culture dish a day prior to treatment. Cells were then treated for 24 hours with (N—[N-(3,5-difluorophenacetyl)-L-alanyl]-S-phenylglycine t-butyl ester (“DAPT”, 5 μM), Inhibitor No. 1-134-83 (25 μM), or DMSO vehicle. Following treatment, cells were cross-linked for 10 minutes with 1% formaldehyde. The reaction was then stopped by adding […] glycine. Cells were collected in SDS lysis buffer (1% SDS, 10 mM EDTA, 50 mM Tris-HCl pH 8.0) and sonicated to yield chromatin fragments of approximately 300 to 800 bp (8 minutes at high level for OE33 cells; 5 minutes at medium level for 786-0 cells in BIORUPTOR UCD-200 sonicator). Lysates were divided into equal parts and immunoprecipitated with either α-Notch1 (A301-894A, Bethyl Laboratories) or α-MAML1 (12166s, Cell Signaling Technology) antibody. Protein:DNA immunoprecipitates were then reverse cross-linked at 65° C. in 200 mM NaCl for 4 hours, followed by incubation with RNase A and proteinase K. DNA was then purified using a PCR purification kit (28104,
Qiagen). Immunoprecipitated DNA was then detected by SYBR green qPCR using HES1 specific oligonucleotide primers (forward: 5′CGTGTCTCCTCCTCCCATT3′; reverse: 5′GGGGGATTCCGCTGTTAT3′).

This note sets out measurements from patent US10501413B2, “Inhibitors of the Notch transcriptional activation complex and methods for use of the same” (UNIVERSITY OF MIAMI, priority 2015, dated 2019).

T2 sequence (P46531 1754-2555 limits assumed): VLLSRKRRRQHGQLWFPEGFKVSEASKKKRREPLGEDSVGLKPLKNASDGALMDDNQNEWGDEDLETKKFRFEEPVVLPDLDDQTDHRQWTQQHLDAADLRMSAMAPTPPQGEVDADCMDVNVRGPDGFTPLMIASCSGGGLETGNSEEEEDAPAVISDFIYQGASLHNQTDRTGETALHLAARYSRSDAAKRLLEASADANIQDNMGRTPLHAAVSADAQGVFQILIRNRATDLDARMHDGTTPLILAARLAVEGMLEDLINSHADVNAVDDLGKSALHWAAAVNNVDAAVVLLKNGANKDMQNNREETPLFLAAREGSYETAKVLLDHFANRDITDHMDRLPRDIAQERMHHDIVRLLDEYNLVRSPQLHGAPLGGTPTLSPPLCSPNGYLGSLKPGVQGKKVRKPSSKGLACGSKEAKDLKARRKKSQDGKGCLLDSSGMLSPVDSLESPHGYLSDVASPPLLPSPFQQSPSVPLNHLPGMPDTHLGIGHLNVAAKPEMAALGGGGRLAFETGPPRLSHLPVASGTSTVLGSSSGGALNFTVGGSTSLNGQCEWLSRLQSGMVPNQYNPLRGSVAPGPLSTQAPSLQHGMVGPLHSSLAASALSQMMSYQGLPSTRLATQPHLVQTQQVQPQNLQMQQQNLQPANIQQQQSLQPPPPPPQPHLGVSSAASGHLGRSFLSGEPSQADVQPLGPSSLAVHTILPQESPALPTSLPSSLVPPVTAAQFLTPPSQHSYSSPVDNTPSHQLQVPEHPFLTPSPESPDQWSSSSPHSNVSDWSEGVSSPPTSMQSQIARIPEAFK
T1 sequence (P46531 1754-2555 limits assumed): as above
T1 sequence (Q06330 whole entry, the tested form may be a part): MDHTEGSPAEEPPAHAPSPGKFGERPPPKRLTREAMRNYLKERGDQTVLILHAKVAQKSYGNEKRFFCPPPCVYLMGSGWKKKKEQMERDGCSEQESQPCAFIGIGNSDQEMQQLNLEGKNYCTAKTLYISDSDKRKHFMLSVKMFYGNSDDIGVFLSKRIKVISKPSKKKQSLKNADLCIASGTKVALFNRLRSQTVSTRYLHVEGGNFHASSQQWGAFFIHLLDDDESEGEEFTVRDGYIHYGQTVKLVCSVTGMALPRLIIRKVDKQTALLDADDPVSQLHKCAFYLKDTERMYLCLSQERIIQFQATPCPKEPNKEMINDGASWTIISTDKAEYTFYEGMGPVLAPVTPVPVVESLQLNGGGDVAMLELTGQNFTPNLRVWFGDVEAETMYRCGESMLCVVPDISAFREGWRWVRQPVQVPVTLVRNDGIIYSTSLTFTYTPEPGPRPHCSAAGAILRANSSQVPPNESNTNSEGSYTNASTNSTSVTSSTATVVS
Sequence of CSL (Q06330 whole entry): as the sequence (Q06330 whole entry, the tested form may be a part) above

`COc1cc(/C=C2\SC(=S)NC2=O)ccc1OCC(=O)O` [1-134-02] had an IC50 in test [1] of 0.5 µM. The Kd in test [2] is 2.9 ± 0.6 µM; in test [3] it was 3.6 ± 0.9 µM.

With `C=CCc1cc(/C=C2\SC(=S)NC2=O)cc(OC)c1OCC(=O)O` [1-134], in test [1], it took 6 µM to reach half-maximal inhibition (IC50). Also, the results for the Kd in test [2] and in test [3] were 17 ± 5 µM and 15 ± 3 µM, respectively.

Take `C[C@H](NC(=O)Cc1cc(F)cc(F)c1)C(=O)N[C@H](C(=O)OC(C)(C)C)c1ccccc1` [DAPT, N—[N-(3,5-difluorophenacetyl)-L-alanyl]-S-phenylglycine t-butyl ester, reference compound]: the “Notch target gene transcription” value in test [4] (OE33 and 786-0 cells, qPCR) is “significant decrease”; in test [4] (insensitive cancer cell lines of the panel, 48 hrs), “do not show a statistically significant reduction”; in test [4] (sensitive cancer cell lines of the panel, 48 hrs, DAPT 10, 1-134-83 15 and 25 μM), “significantly reduced”. For the same compound, the “transcription of control gene HPRT” value in test [4] (OE33 and 786-0 cells, qPCR) is “not affected”. In addition, the “growth of established tumor” value in test [5] is on record as “stunted growth to a similar level achieved with DAPT treatment”. In addition, the colony formation result in test [6] (786-0 and OE33 cells) was “inhibited the cell colony forming ability of cells”; in test [6] (sensitive (Notch dependent) cell lines), “decrease in colony formation”. In addition, the “levels of NICD in cells” value in test [7] was “decrease in the NICD pool”. In test [8], the “occupancy of MAML1 on the HES1 promoter” value is given as “decreased”. For the same compound, in test [8], the “occupancy of NOTCH1 on the HES1 promoter” value is “decreased”.

Compound `O=C(O)COc1ccccc1/C=C1\SC(=S)NC1=O` [NADi-090] came in with an IC50 in test [1] of 0.07 µM. For the same compound, the Kd in test [2] worked out at 25 ± 4 µM; in test [3], 3.4 ± 0.7 µM.

Consider `COc1cccc(/C=C2\SC(=S)N(CC(=O)N(C)C)C2=O)c1O` [NADi-203, (Z)-2-(5-(2-Hydroxy-3-methoxybenzylidene)-4-oxo-2-thioxothiazolidin-3-yl)-N,N-dimethylacetamide], for which, in test [1], the IC50 turned out to be 0.5 µM. The Kd in test [2] is 5.7 ± 0.9 µM; in test [3], 6.4 ± 0.7 µM.

Regarding `CN(C)C(=O)CN1C(=O)/C(=C/c2cc(F)ccc2O)SC1=S` [NADi-239, (Z)-2-(5-(5-Fluoro-2-hydroxybenzylidene)-4-oxo-2-thioxothiazolidin-3-yl)-N,N-dimethylacetamide], in test [1], 0.5 µM corresponded to half-maximal inhibition (IC50). For the same compound, the Kd in test [2] turned out to be 3.7 ± 0.8 µM; in test [3] it was 13 ± 2 µM.

The IC50 is the concentration at which inhibition is half-maximal. Lower therefore signals greater potency. The term Kd denotes a measure of binding affinity in units of concentration.
